Assay results as given in ChEMBL document CHEMBL6120984, “Novel potent SOS1 inhibitors containing a tricyclic quinazoline scaffold: A joint view of experiments and simulations” (Eur J Med Chem, 2025).
pIC50: −log10 of the molar value. Active and inactive are the calls of the source. The calls are words filed in the database; no cut-off is given here.

Columns and labels:
MIA PaCa-2 [1] = test: Antiproliferative activity against human MIA PaCa-2 cells expressing KRAS G12C mutant assessed as inhibition of cell proliferation incubated for 14 days in 3-D culture condition; assay type: functional, cell-based; details: MIA PaCa-2, 336 h
MIA PaCa-2 [2] = test: Antiproliferative activity against human MIA PaCa-2 cells expressing KRAS G12C mutant assessed as maximal inhibition of cell proliferation incubated for 14 days in 3-D culture condition relative to control; assay type: functional; details: time 14 day
[3] = Inhibition of ERK phosphorylation in human DLD-1 cells expressing KRAS G13D mutant incubated for 60 mins by HTRF assay; assay type: cell-based; details: DLD-1, 1 h
SOS1-KRAS = SOS1-KRAS (Homo sapiens, UniProt Q07889); test: Inhibition of 6His peptide-tagged recombinant human SOS1 (564 to 1049 residues)/N-terminal GST-tagged human recombinant KRAS G12C mutant protein-protein interaction incubated for 1 hrs by HTRF assay; assay type: protein-complex assay
MIA PaCa-2 [4] = test: Antitumor activity against human MIA PaCa-2 cells xenografted in female BALB/c nude mouse assessed as tumor growth inhibition at 50 mg/kg, po administered twice daily for 21 days relative to control; assay type: functional; details: MIA PaCa-2, 504 h, time 21 day, read-out: TGI
NCI-H520 = test: Antiproliferative activity against human NCI-H520 cells expressing wildtype KRAS assessed as inhibition of cell proliferation; assay type: functional, cell-based
Mus musculus [5] = test: In vivo inhibition of ERK phosphorylation in female BALB/c nude mouse xenografted with human MIA PaCa-2 cells assessed as effect on phosphorylated ERK level in tumor at 50 mg/kg, po administered twice daily for 21 days; assay type: functional, organism-based; details: time 21.0 day
Mus musculus [6] = test: In vivo inhibition of AKT phosphorylation in female BALB/c nude mouse xenografted with human MIA PaCa-2 cells assessed as effect on phosphorylated AKT level in tumor at 50 mg/kg, po administered twice daily for 21 days; assay type: functional, organism-based; details: time 21.0 day
[7] = AUC in male CD-1 mouse at 10 mg/kg, po measured after 24 hrs by LC-MS/MS analysis; assay type: ADME, organism-based; details: in vivo
NCI-H358 = test: Antiproliferative activity against human NCI-H358 cells expressing KRAS G12C mutant assessed as inhibition of cell proliferation; assay type: functional, cell-based
DLD-1 = test: Antiproliferative activity against human DLD-1 cells expressing KRAS G13D mutant assessed as inhibition of cell proliferation; assay type: functional, cell-based
[8] = Elimination rate constant in male CD-1 mouse at 10 mg/kg, po measured after 24 hrs by LC-MS/MS analysis; assay type: ADME, organism-based; details: in vivo
[9] = Half-life in male CD-1 mouse at 10 mg/kg, po measured after 24 hrs by LC-MS/MS analysis; assay type: ADME, organism-based; details: in vivo
NCI-H441 = test: Antiproliferative activity against human NCI-H441 cells expressing KRAS G12V mutant assessed as inhibition of cell proliferation; assay type: functional, cell-based
[10] = Tmax in male CD-1 mouse at 10 mg/kg, po measured after 24 hrs by LC-MS/MS analysis; assay type: ADME, organism-based; details: in vivo
[11] = Cmax in male CD-1 mouse at 10 mg/kg, po measured after 24 hrs by LC-MS/MS analysis; assay type: ADME, organism-based; details: in vivo
[12] = MRT in male CD-1 mouse at 10 mg/kg, po measured after 24 hrs by LC-MS/MS analysis; assay type: ADME, organism-based; details: in vivo
[13] = Therapeutic index, ratio of IC50 for human MCF-10A cells to IC50 for human DLD-1 cells expressing KRAS G13D mutant; assay type: toxicity; details: MCF-10A cells versus DLD-1 cells expressing KRAS G13D mutant, read-out: Ratio IC50
[14] = Toxicity in female BALB/c nude mouse xenografted with human MIA PaCa-2 cells assessed as body weight loss at 50 mg/kg, po administered twice daily for 21 days; assay type: organism-based; details: in vivo, 504 h, time 21 day
[15] = Therapeutic index, ratio of IC50 for human MCF-10A cells to IC50 for human NCI-H358 cells expressing KRAS G12C mutant; assay type: toxicity; details: read-out: Ratio IC50
[16] = Toxicity in female BALB/c nude mouse xenografted with human MIA PaCa-2 cells assessed as animal death at 50 mg/kg, po administered twice daily for 21 days; assay type: organism-based; details: in vivo, 504 h, time 21 day
[17] = Therapeutic index, ratio of IC50 for human MCF-10A cells to IC50 for human NCI-H441 cells expressing KRAS G12V mutant; assay type: toxicity; details: read-out: Ratio IC50
[18] = Cytotoxicity against human MCF-10A cells assessed as inhibition of cell proliferation
[19] = Therapeutic index, ratio of IC50 for human MCF-10A cells to IC50 for human MIA PaCa-2 cells expressing KRAS G12C mutant; assay type: toxicity; details: read-out: Ratio IC50

Chain of SOS1-KRAS (Q07889 whole entry, looked up, stated change not applied, the tested form may be a part): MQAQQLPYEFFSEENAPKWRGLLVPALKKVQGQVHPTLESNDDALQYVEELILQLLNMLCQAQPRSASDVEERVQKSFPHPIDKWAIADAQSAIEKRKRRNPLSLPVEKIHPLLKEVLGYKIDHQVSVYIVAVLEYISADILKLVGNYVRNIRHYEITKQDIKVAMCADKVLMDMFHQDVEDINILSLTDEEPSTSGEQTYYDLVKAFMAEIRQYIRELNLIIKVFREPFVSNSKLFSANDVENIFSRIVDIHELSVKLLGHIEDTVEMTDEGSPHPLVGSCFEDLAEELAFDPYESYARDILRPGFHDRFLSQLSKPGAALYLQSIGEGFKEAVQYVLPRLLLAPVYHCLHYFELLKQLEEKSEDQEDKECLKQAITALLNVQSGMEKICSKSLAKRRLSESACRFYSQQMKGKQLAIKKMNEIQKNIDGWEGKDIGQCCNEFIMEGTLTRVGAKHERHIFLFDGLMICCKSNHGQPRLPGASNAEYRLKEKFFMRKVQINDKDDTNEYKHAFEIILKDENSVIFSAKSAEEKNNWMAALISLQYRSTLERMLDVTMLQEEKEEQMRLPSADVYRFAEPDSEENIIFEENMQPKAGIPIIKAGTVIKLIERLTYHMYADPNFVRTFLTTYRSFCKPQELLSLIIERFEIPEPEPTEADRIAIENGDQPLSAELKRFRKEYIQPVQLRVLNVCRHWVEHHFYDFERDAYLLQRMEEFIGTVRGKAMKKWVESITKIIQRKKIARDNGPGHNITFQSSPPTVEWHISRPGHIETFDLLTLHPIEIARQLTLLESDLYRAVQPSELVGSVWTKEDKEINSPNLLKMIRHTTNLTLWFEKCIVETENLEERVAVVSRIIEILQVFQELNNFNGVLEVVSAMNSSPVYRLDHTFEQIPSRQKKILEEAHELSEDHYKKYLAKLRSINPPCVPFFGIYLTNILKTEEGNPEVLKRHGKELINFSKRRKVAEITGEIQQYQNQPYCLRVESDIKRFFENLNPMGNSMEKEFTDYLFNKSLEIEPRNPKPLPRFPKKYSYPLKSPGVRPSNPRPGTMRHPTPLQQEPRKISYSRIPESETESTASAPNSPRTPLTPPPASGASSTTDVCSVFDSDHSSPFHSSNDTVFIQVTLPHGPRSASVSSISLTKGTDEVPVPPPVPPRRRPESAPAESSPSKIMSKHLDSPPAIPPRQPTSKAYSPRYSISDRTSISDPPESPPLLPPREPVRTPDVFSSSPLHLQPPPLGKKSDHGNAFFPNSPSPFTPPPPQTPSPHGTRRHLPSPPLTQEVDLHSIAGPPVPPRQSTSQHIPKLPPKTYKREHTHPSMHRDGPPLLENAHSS

`Cc1nc(N[C@H](C)c2cccc(C(F)F)c2F)c2cc3c(cc2n1)OCCN3C(=O)C1CN(C)C1` gave a pIC50 (MIA PaCa-2 [1]) of 5.82, an Imax (MIA PaCa-2 [2]) of 67% and a pIC50 [3] of 6.48. For the same molecule, the pIC50 (SOS1-KRAS) was 7.03.

`COc1cc2nc(C)nc(N[C@H](C)c3cc(N)cc(C(F)(F)F)c3)c2cc1O[C@H]1CCOC1` gave an inhibition in vivo at 50 mg/kg (MIA PaCa-2 [4]) of 56.3%, a pIC50 (NCI-H520) of 5.58 and a pIC50 (MIA PaCa-2 [1]) of 6.82. For the same molecule, the inhibition (Mus musculus [5]) was “Active”, the inhibition (Mus musculus [6]) was “Active” and the AUC at 24 h [7] was 2300 ng·h/mL. It also gave a pIC50 (NCI-H358) of 6.92, an Imax (MIA PaCa-2 [2]) of 85% and a pIC50 (DLD-1) of 7.00. It also gave a k el at 24 h [8] of 0.000119 s⁻¹, a half-life [9] of 1.67 h and a pIC50 (NCI-H441) of 6.80. The Tmax [10] was 0.33 h, the Cmax [11] was 870 ng/mL and the MRT [12] was 2.44 h. For the same molecule, the pIC50 [3] was 7.52.

Molecule `Cc1nc(N[C@H](C)c2cccc(C(F)F)c2F)c2cc3c(cc2n1)OCCN3C(=O)C1CCN(C)CC1` has a pIC50 (MIA PaCa-2 [1]) of 6.85, an AUC at 24 h [7] of 1920 ng·h/mL and an Imax (MIA PaCa-2 [2]) of 82%. It also gave a k el at 24 h [8] of 0.000111 s⁻¹, a half-life [9] of 1.72 h and a Tmax [10] of 0.5 h. It also gave a Cmax [11] of 650 ng/mL, an MRT [12] of 2.11 h and a pIC50 [3] of 7.68. For the same molecule, the pIC50 (SOS1-KRAS) was 8.25.

`Cc1nc(N[C@H](C)c2cccc(C(F)F)c2F)c2cc3c(cc2n1)OCCN3C(=O)N1CCN(C)CC1` gave a pIC50 (MIA PaCa-2 [1]) of 6.18, an Imax (MIA PaCa-2 [2]) of 79% and a pIC50 [3] of 7.01. For the same molecule, the pIC50 (SOS1-KRAS) was 7.62.

In the case of `Cc1nc(N[C@H](C)c2cccc(C(F)F)c2F)c2cc3c(cc2n1)OCCN3C(=O)C1CCOCC1`, the pIC50 (MIA PaCa-2 [1]) was 5.88, the Imax (MIA PaCa-2 [2]) was 76% and the pIC50 [3] was 7.15. It also gave a pIC50 (SOS1-KRAS) of 7.72.

Molecule `Cc1nc(N[C@H](C)c2cccc(C(F)F)c2F)c2cc3c(cc2n1)OCCN3C(=O)C1CCN(C(C)C)CC1` has an inhibition in vivo at 50 mg/kg (MIA PaCa-2 [4]) of 70.5%, a pIC50 (NCI-H520) of 5.54 and a selectivity ratio [13] greater than 400. For the same molecule, the Activity [14] was “Non-toxic”, the pIC50 (MIA PaCa-2 [1]) was 6.96 and the selectivity ratio [15] was greater than 400. For the same molecule, the inhibition (Mus musculus [5]) was “Active”, the inhibition (Mus musculus [6]) was “Active” and the AUC at 24 h [7] was 2910 ng·h/mL. The pIC50 (NCI-H358) was 7.15, the Activity [16] was “Non-toxic” and the selectivity ratio [17] was greater than 400. The Imax (MIA PaCa-2 [2]) was 86%, the pIC50 (DLD-1) was 7.15 and the k el at 24 h [8] was 0.000117 s⁻¹. The half-life [9] was 1.65 h, the pIC50 (NCI-H441) was 6.92 and the Tmax [10] was 1.08 h. For the same molecule, the Cmax [11] was 790 ng/mL, the MRT [12] was 2.83 h and the pIC50 [3] was 7.74. It also gave a pIC50 [18] of 4.35, a pIC50 (SOS1-KRAS) of 8.29 and a selectivity ratio [19] greater than 400.

Work on `C=C(F)C(=O)N1CCN(c2nc(OC[C@@H]3CCCN3C)nc3c2CCN(c2cccc4cccc(Cl)c24)C3)C[C@@H]1CC#N` [ADAGRASIB] yielded a pIC50 (MIA PaCa-2 [1]) of 6.60 and an Imax (MIA PaCa-2 [2]) of 89%.

`Cc1nc(N[C@H](C)c2cccc(C(F)F)c2F)c2cc3c(cc2n1)OCCN3C(=O)N1CCN(C)C[C@@H]1C` showed a pIC50 (MIA PaCa-2 [1]) of less than 5.00, an Imax (MIA PaCa-2 [2]) of 26% and a pIC50 [3] of less than 5.52. The pIC50 (SOS1-KRAS) was 6.32.
